Assay results from patent US11098009B2, “Amidine substituted analogues and uses thereof” (Verlyx Pharma Inc., priority 2016, dated 2021).
Structures can show the parent of a compound that is named as a salt.

Legend:
[1] = test system: GalN/LPS fulminant liver injury; assay: GalN/LPS fulminant liver injury model, Study a (survival); assay type: in vivo, C57BL/6 mice
Method: A Galactosamine/Liposaccharide (GalN/LPS) fulminant liver injury model may be used to evaluate the anti-inflammatory, anti-TNFα and hepatoprotective properties of the compound of the description.
Mice were maintained under 12 h light/dark cycles with unlimited access to food and water. Study was performed in 6- to 14-week old male mice. C57BL/6 mice were used. Mice are first injected with pentamidine or Example 2 compound (IP injection). 30 minutes later, liver injury is induced by intraperitoneal injections of 100 μg/kg of LPS (E. coli 0111:B4) and 700 mg/kg of GalN (Sigma) dissolved in phosphate-buffered saline (PBS).
The tested compounds were be dosed IP 30-minutes prior to the co-treatment with galactosamine (GalN) and endotoxin (Lipopolysaccharide) LPS. Mice were either sacrificed at 6.5 hours after GalN/LPS for ALT analysis, or kept for longer periods to evaluate survival. The analysis of alanine transaminase (ALT) serum levels and histological observations allow the evaluation of the hepatoprotective, anti-TNF-α, anti-inflammatory and/or anti-fibrotic activity.
Survival was evaluated at two time points, i.e. 8 and 23 hours. In controls group receiving PBS prior to the GalN/LPS liver injury, no mice survived 8 hours. […] In the case of trihexamidine isethionate, all mice survived more than 23 hours with 10 mg/kg (8.6 μmole/kg) doses.

[2] = test system: GalN/LPS fulminant liver injury; assay: GalN/LPS fulminant liver injury model, Study b (serum ALT); assay type: in vivo, C57BL/6 mice; details: for ALT: GalN-LPS 700 mg/kg - 10 μg/kg, 6 hours post injury, WFI control 5989; for Hepatoprotection at lower doses: 10 mg/kg (4.3 and 8.6 μmole/kg) for C2, 5 and 10 mg/kg (3.3 and 6.6 μmole/kg) for C4, 5 mg/kg (6.3 mole/kg [sic]) for C5; for Hepatoprotection in the model (low ALT activity levels following GalN/LPS): FIG. 3
Method: (§1) Mice were maintained under 12 h light/dark cycles with unlimited access to food and water. Study was performed in 6- to 14-week old male mice. C57BL/6 mice were used. Mice are first injected with pentamidine or Example 2 compound (IP injection). […]
(§2) All doses were administered IP to six mice (n=6), 30 minutes prior to the injection of the GalN and LPS, when applicable to the group. Blood samples were collected exactly 6 hours post GalN/LPS injections, or 6.5 hours after vehicle injections.
(§3) The tested compounds were dosed IP 30 minutes prior to the co-treatment with galactosamine (GalN) and endotoxin (Lipopolysaccharide) LPS. Mice were sacrificed at 6 hours after GalN/LPS for ALT analysis. The analysis of alanine transaminase (ALT) serum levels allows the evaluation of the hepatoprotective, anti-TNF-α, anti-inflammatory and/or anti-fibrotic activity.

[3] = test system: GalN/LPS fulminant liver injury; assay: GalN/LPS fulminant liver injury model, Study c (serum ALT); assay type: in vivo, C57BL/6 mice; details: for ALT: GalN-LPS 700 mg/kg - 10 μg/kg, 6 hours post injury, WFI control 4403
Method: as §1, §2, §3

HCT-116 cells = assay: HCT assay: real-time proliferation assay using xCELLigence system; assay type: cell-based; details: xCELLigence impedance
Method: The compounds were evaluated in a proliferation assay using HCT-116 cells using an xCELLigence system. Briefly, the xCELLigence system monitors cellular events in real time by measuring electrical impedance across interdigitated micro-electrodes integrated on the bottom of tissue culture E-Plates. The impedance measurement provides quantitative information about the biological status of the cells, including cell number, viability, and morphology. Real-time proliferation assays were then to determine the IC50 values. All proliferation assays start 24 hours after the transfection.

[4] = test system: DSS-induced acute colitis; assay: DSS-induced acute colitis in mice (Disease Activity Index); assay type: in vivo, C57BL/6 ELITE mice; details: 2.5% DSS; 2.5 and 5 mg/kg IP q.d. D1-D6, termination D7; FIG. 5
Method: Dextran Sulfate Sodium 2.5% stocks were prepared by adding tap water in the pre-weighed powder. DSS solutions will be changed every 3 days for all groups, i.e. on Day 1 (D1) and Day 4 (D4).
Formulations for Intraperitoneal Administration: • Vehicle: sterile double distilled water (DDW) • For Pentamidine (Penta) and Compounds 2 and 4, the compounds were dissolved in DDW and dosed at 2 mL/kg to yield the indicated doses. In-Vivo Study
Male C57BL/6 ELITE mice of ˜7-8 weeks old were used. After 5-day acclimatization period in animal facility, all mice were weighed and given tap water containing 2.5% DSS on Day 1, treatment also starts on Day 1.
Animals were dosed from D1 to D6, once daily by IP injection (2 mL/kg). Animals were terminated on D7. The Disease Activity Index (DAI) scale is based on the evaluation of different parameters characterizing experimental colitis induction and progression. Body weight, presence of gross blood in the feces and stool consistency will be recorded daily.
• Weight loss: 0=none; 1=1 to 5%; 2=5 to 10%; 3=_10 to 20%; 4=>20% • Stool consistency: 0=normal; 2=loose; 4=diarrhea • Rectal bleeding: 0=normal; 2=occult bleeding; 4=gross bleeding
On Day 7, mice will be weighed and disease scores evaluated, and then euthanized by CO2 inhalation.

[5] = Homo sapiens, HCT-116, HCT-116 cells

Molecule | IC50 (HCT-116 cells; [5]) | Disease activity index [4] | Hepatoprotection at lower doses [2] | Hepatoprotection in the model (low ALT activity levels following GalN/LPS) [2] | ALT ([2]; IP dose 5 mg/kg in WFI) | ALT ([2]; IP dose 10 mg/kg in WFI) | other results
N=C(N)c1ccc(OCCCCCOc2ccc(C(=N)N)cc2)cc1 [Pentamidine, pentamidine, reference compound] | – | – | – | – | – | – | Survival at 8 hours post GalN/LPS ([1]; 25 mg/kg IP 30 min before GalN/LPS): only the 40 mg/kg (67 μmole/kg) group benefited; Survival at 8 hours post GalN/LPS ([1]; 40 mg/kg (67 μmole/kg) IP 30 min before GalN/LPS, PBS controls: no mice survived 8 hours): benefited from hepatoprotective properties; Survival at 23 hours post GalN/LPS ([1]; 25 and 40 mg/kg IP 30 min before GalN/LPS): none survived; Hepatoprotection (positive control) ([2]; 50 mg/kg (84 μmole/kg)): benefited from hepatoprotective properties; ALT ([2]; IP dose 50 mg/kg in WFI): 306 IU/L; Hepatoprotection (positive control) ([3]; Study c text, 50 mg/kg (84 μmole/kg)): benefited from hepatoprotective properties
N=C(N)c1ccc(OCCCCCCOc2cc(OCCCCCCOc3ccc(C(=N)N)cc3)cc(OCCCCCCOc3ccc(C(=N)N)cc3)c2)cc1 [Compound 1, Trihexamidine Formate] | 1.9 µM | – | – | – | – | – | –
N=C(N)c1ccc(OCCCCCCOc2cc(OCCCCCCOc3ccc(C(=N)N)cc3)cc(OCCCCCCOc3ccc(C(=N)N)cc3)c2)cc1 [Compound 2, Trihexamidine Isethionate] | – | reduced the disease activity index | Significant hepatoprotection | hepatoprotective | 2184 IU/L | 890 IU/L | Survival (all mice) post GalN/LPS ([1]; 10 mg/kg (8.6 μmole/kg) IP 30 min before GalN/LPS): more than 23 hours; IC50 (HCT-116 cells; HCT-116 cells): 2.66 µM
Triamidine Formate (Chain Average Mn 1000) [Compound 5] | – | – | Significant hepatoprotection | hepatoprotective | 1072 IU/L | 689 IU/L | HCT-116 IC50 (HCT-116 cells; HCT-116 cells): ∞
N=C(N)c1ccc(OCCCCCCCCOc2cc(OCCCCCCCCOc3ccc(C(=N)N)cc3)cc(OCCCCCCCCOc3ccc(C(=N)N)cc3)c2)cc1 [Compound 3, Trioctamidine Isethionate] | 6.67 µM | – | – | – | – | – | –
N=C(N)c1ccc(OCCCOc2cc(OCCCOc3ccc(C(=N)N)cc3)cc(OCCCOc3ccc(C(=N)N)cc3)c2)cc1 [Compound 4, Tripropamidine Formate] | 38 µM | reduced the disease activity index | Significant hepatoprotection | hepatoprotective | 731 IU/L | – | Hepatoprotection in the model (low ALT activity levels following GalN/LPS) ([3]; Study c, FIG. 4): dose-dependent hepatoprotection; Hepatoprotection at stated doses ([3]; Study c, 0.625 mg/kg, 1.25 mg/kg and 2.5 mg/kg IP): Significant hepatoprotection; ALT ([3]; Study c, IP dose 0.625 mg/kg in WFI): 1755 IU/L; ALT ([3]; Study c, IP dose 1.25 mg/kg in WFI): 1090 IU/L; ALT ([3]; Study c, IP dose 2.5 mg/kg in WFI): 555 IU/L
